Where two headings read alike, the source gives them in different places.

Data on 4 compounds can be found in patent US11713302B2, “Sulfonamide benzamide derivative and preparation method and application thereof” (WEIFANG MEDICAL UNIVERSITY, priority 2021, dated 2023).

Data set [1] is described as follows: Cytotoxicity assay (CCK-8) in HepAD38 cells. Format: cell-based. As to conditions: human. Here is the method:
(§1) HBV stably transfected hepatocellular carcinoma cell line, HepAD38, was able to secrete HBV viral particles (containing HBsAg, HBeAg and DNA) when the cells were cultured. The amount of HBsAg and HBeAg secreted by the cells and the DNA produced varied under the intervention of anti-HBV target compounds, so the antiviral activity of the sample drug could be calculated by measuring the amount of HBsAg and HBeAg secreted by the cells into the culture supernatant and the HBV DNA produced, with reference to the amount in the unspiked control. Using entecavir as a positive control drug, the concentration of the drug at 50% inhibition of HBV DNA was measured by quantitative PCR at the value of IC50; the concentration of the sample drug causing 50% cell death was measured by CCK-8 at the value of CC50, and the “selectivity index” of the compound to be tested was calculated. SI=CC50/IC50. (1) Cytotoxicity assay
(§2) Each sample was prepared with HepAD38 cell culture medium at a diluted concentration (1 μM) for preliminary activity screening, and a blank control was set up and a positive control drug was added to the 96-well cell culture plate with 3 replicate wells per concentration, and the same concentration was changed every 2 days and a drug-free cell control group was set up for 10 days. Cell viability was measured by CCK-8 assay to determine the toxicity of the drug to HepAD38 cells. Five dilutions (10 μM, 2 μM, 0.4 μM, 0.08 μM and […]) were prepared in HepAD38 cell culture medium for compounds with low toxicity, and a blank control and entecavir and lead compound 5a were used as positive control drugs. Cell culture plates were added to 96-well plates with 3 replicate wells per concentration, and the same concentration was changed every 2 days and a drug-free cell control group was set up for 10 days. Cell viability was measured by CCK-8 assay to determine the toxicity of the drug on HepAD38 cells.

In the next data set the test system is HepAD38 cells. The data set is described as follows: Cytotoxicity assay (CCK-8) in HepAD38 cells. Format: cell-based. As to conditions: CCK-8, 10 days. Here is the method: as §1, §2
A further data set deals with HBV DNA. Put plainly: HBV DNA activity inhibition assay (quantitative PCR) in HepAD38 cells. Format: cell-based, hepatitis B virus (HBV). Here is the method: as §1
(2) HBV DNA Activity Inhibition Assay (Quantitative PCR Method)
HepAD38 cells were cultured in 96-well cell culture plate for 24 hours, then 10 μM, 2 μM, 0.4 μM, 0.08 μM and […] drug-containing medium was added and the cells were incubated for 10 days (changed every 2 days), the supernatant was collected and the supernatant HBV DNA content was measured by quantitative PCR.

Setting [2] is: Hepatitis B virus, 240 h, supernatant HBV DNA, HepAD38 cells, quantitative PCR, 10 days, read-out: EC50.
Where [3] appears, read: Hepatitis B virus, 240 h, supernatant HBV DNA, HepAD38 cells, quantitative PCR, 10 days, read-out: IC90.
Setting [4] is: Hepatitis B virus, HePAD38, 240 h.

As to `CC(C)NS(=O)(=O)c1cc2c(c(C(=O)Nc3ccc(F)c(Cl)c3)c1)OCCO2` [Compound 5k], the CC50 – broadly, the concentration at which the toxic effect on the cells reaches its halfway point – at 10 days in data set [1] (CCK-8) is more than 10000 nM. Further, in the data set on HepAD38 cells, the CC50 is more than 10000 nM. Also, in the data set with HBV DNA (setting [2]), the EC50 (in general, the concentration at which the effect is half-maximal) worked out at 0.96 nM. For the same compound, the IC90 – broadly, the concentration needed for an effect of 90% – in the data set with HBV DNA (setting [3]) turned out to be 99 nM. Further, the IC50 (as a rule, the concentration at which inhibition is half-maximal) in the data set on HBV DNA (Hepatitis B virus, HePAD38, quantitative PCR, read-out: IC50 (anti-HBV DNA replication activity)) came to 0.96 nM. For the same compound, the “inhibition of HBV DNA replication activity (initial screening)” value (shortened to “inhibition”) in the data set with HBV DNA (quantitative PCR) was “good HBV DNA replication inhibitory activity”.
In data set [1] (CCK-8, 10 days), `C=C1[C@H](CO)[C@@H](O)C[C@@H]1n1cnc2c(=O)[nH]c(N)nc21` [ETV, entecavir, reference compound] had a CC50 at 10 days of more than 10000 nM. In the data set on HBV DNA (setting [4]), this compound yielded an EC50 of 0.121 nM and an IC90 of 21 nM.
`O=C(Nc1ccc(F)c(Cl)c1)c1cc(S(=O)(=O)NC2CCCCC2)cc2c1OCCO2` [Compound 5c] came in with a CC50 at 10 days in data set [1] (CCK-8) of more than 10000 nM. This compound yielded a CC50 in the data set on HepAD38 cells of more than 10000 nM. Moreover, in the data set on HBV DNA (setting [2]), the EC50 stood at 14.9 nM. Further, in the data set with HBV DNA (setting [3]), the IC90 turned out to be 430 nM. Moreover, the “inhibition” value in the data set with HBV DNA (quantitative PCR) is listed as “good HBV DNA replication inhibitory activity”.
Consider `O=C(Nc1ccc(F)c(Cl)c1)c1cc(S(=O)(=O)NC2CCCC2)cc2c1OCCO2` [Compound 5b], for which the CC50 at 10 days in data set [1] (CCK-8) was more than 10000 nM. The same compound showed a CC50 in the data set with HepAD38 cells of more than 10000 nM. The EC50 in the data set on HBV DNA (setting [2]) came to 2.52 nM. For the same compound, the IC90 in the data set on HBV DNA (setting [3]) came out at 293 nM. For the same compound, in the data set with HBV DNA (quantitative PCR), the “inhibition” value is recorded as “good HBV DNA replication inhibitory activity”.
